Laboratory results as given in patent publication US20040209283A1, “Continuous-read assay for the detection of de novo HCV RNA polymerase activity” (Pfizer Inc., priority 2002, published 2004).

Columns and labels:
double-stranded NR-2 = assay: Binding of PicoGreen to double-stranded NR-2 at varying buffer component concentrations (fluorescence intensity); settings: for effect on the binding of PicoGreen to the double-stranded template: at the concentrations tested; for Fluorescence Intensity (% of control ± SD; n = 2): 7 nM double-stranded NR2, 600 nM PicoGreen
Experimental: To assess the effect of buffer component concentration on the binding of PicoGreen® to double-stranded NR-2, mixtures containing 7 nM double-stranded NR2, 600 nM PicoGreen®, and varying concentrations of the buffer components were prepared, and the fluorescence intensities of these mixtures were measured. These mixtures were prepared using between 4 fold less to 1.25 to 2 fold more of the individual buffer components (relative to the amount of the components used in the reactions described in Example 1).

C delta 21 NS5B = assay: Continuous-read fluorescence assay of de novo NS5B polymerase activity; assay type: biochemical, Hepatitis C virus (HCV)
Experimental: Reactions were prepared by first placing 0.5 μL of 100% DMSO into the wells of an assay plate (Corning, black, 384-well, NBS #3654). In reactions in which modulators or inhibitors of RNA polymerase activity are to be identified, a test compound may be added to the DMSO. A solution (Solution-1) containing 162 nM of C delta 21 NS5B and 28 nM NR-2 in an assay buffer comprising 20 mM Tris-HCl, pH 7.5; 100 mM ammonium acetate; 2 mM MnCl2; 10 mM DTT; and 2 mM CHAPS, was then prepared and incubated at ambient temperature for a minimum of 15 minutes. During this incubation, a second solution (Solution-2) was prepared by mixing 76 nM of PicoGreen® with 2.7 μM UTP, 2.7 μM CTP, 2.7 μM ATP, 67 μM GTP in the assay buffer that is described above. Next, 10 μL of Solution-1 was added to the wells of the assay plate containing DMSO and the plate was incubated for 15 minutes at ambient temperature. […]
The reactions were monitored on a LJL Analyst (Molecular Devices Corp.; Sunnyvale, Calif.), which excited the PicoGreen® at 485 nm and detected PicoGreen® fluorescence at 530 nm.
The effect of increasing concentrations of PicoGreen® on reaction kinetics was also assessed. […] The calculated initial velocity (v0=span x kexp) increased as the concentration of PicoGreen® was increased from 50 to 600 nM, and appeared to plateau at between 600 and 800 nM PicoGreen® (FIG. 5C).

[1] = component final concentration 0.5 mM
[2] = component final concentration 1 mM
[3] = component final concentration 2 mM
[4] = component final concentration 4 mM

O[C@@H](CS)[C@@H](O)CS [DTT]
effect on the binding of PicoGreen to the double-stranded template (double-stranded NR-2): Neither DTT nor chaps affected the binding | Fluorescence Intensity (% of control ± SD; n = 2) (double-stranded NR-2; component final concentration 2.5 mM): 98 ± 5 % of control | Fluorescence Intensity (% of control ± SD; n = 2) (double-stranded NR-2; component final concentration 5 mM): 100 ± 2 % of control | Fluorescence Intensity (% of control ± SD; n = 2) (double-stranded NR-2; component final concentration 10 mM): 100 ± 1 % of control | Fluorescence Intensity (% of control ± SD; n = 2) (double-stranded NR-2; component final concentration 20 mM): 96 ± 3 % of control

[Cl][Mn][Cl] [MnCl2]
inhibition of the binding of PicoGreen to the template (double-stranded NR-2; at 2 mM): approximately 35% | inhibition of the binding of PicoGreen to the template (double-stranded NR-2; at 4 mM): ~55% | Fluorescence Intensity (% of control ± SD; n = 2) (double-stranded NR-2; [1]): 96 ± 2 % of control | Fluorescence Intensity (% of control ± SD; n = 2) (double-stranded NR-2; [2]): 82 ± 1 % of control | Fluorescence Intensity (% of control ± SD; n = 2) (double-stranded NR-2; [3]): 65 ± 1 % of control | Fluorescence Intensity (% of control ± SD; n = 2) (double-stranded NR-2; [4]): 45 ± 2 % of control

CC(=O)O.N [Ammonium Acetate]
inhibition of PicoGreen binding (double-stranded NR-2; at 100 mM): 5% | inhibition of PicoGreen binding (double-stranded NR-2; at 125 mM): 10% | Fluorescence Intensity (% of control ± SD; n = 2) (double-stranded NR-2; component final concentration 12.5 mM): 105 ± 1 % of control | Fluorescence Intensity (% of control ± SD; n = 2) (double-stranded NR-2; component final concentration 25 mM): 103 ± 1 % of control | Fluorescence Intensity (% of control ± SD; n = 2) (double-stranded NR-2; component final concentration 50 mM): 109 ± 1 % of control | Fluorescence Intensity (% of control ± SD; n = 2) (double-stranded NR-2; component final concentration 100 mM): 95 ± 1 % of control | Fluorescence Intensity (% of control ± SD; n = 2) (double-stranded NR-2; component final concentration 125 mM): 89 ± 2 % of control | effect on NS5B activity (C delta 21 NS5B; 100 mM ammonium acetate): appeared to enhance NS5B activity

CN(C)CCCN(CCCN(C)C)c1cc(C=C2Sc3ccccc3N2C)c2ccccc2[n+]1-c1ccccc1 [PicoGreen®, reference compound]
change of experimental rate constant (kexp) of the first-order reaction (C delta 21 NS5B; at 600 nM PicoGreen): slightly less than a two-fold decrease

C[C@H](CCC(=O)NCCC[N+](C)(C)CCCS(=O)(=O)[O-])[C@H]1CC[C@H]2[C@@H]3[C@H](O)C[C@@H]4C[C@H](O)CC[C@]4(C)[C@H]3C[C@H](O)[C@]12C [CHAPS]
effect on the binding of PicoGreen to the double-stranded template (double-stranded NR-2): Neither DTT nor chaps affected the binding | Fluorescence Intensity (% of control ± SD; n = 2) (double-stranded NR-2; [1]): 98 ± 3 % of control | Fluorescence Intensity (% of control ± SD; n = 2) (double-stranded NR-2; [2]): 96 ± 1 % of control | Fluorescence Intensity (% of control ± SD; n = 2) (double-stranded NR-2; [3]): 96 ± 1 % of control | Fluorescence Intensity (% of control ± SD; n = 2) (double-stranded NR-2; [4]): 102 ± 1 % of control
